Experimental data from US20020110838A1, “Methods for assessing muscle protein wasting and therapeutics therefor” (priority 2000, published 2002).
“Also recorded” adds a separate entry of the source. Where a SMILES comes first, the peptide text is derived from it. The star is where a group is joined. Cbz = O=C(OCc1ccccc1)*

Columns and labels:
14 kDa actin fragment [1] = assay: 14 kDa actin peptide in intact L6 cells, measured after lysis; assay type: cell-based, rat; design: 14 kDa actin peptide in intact L6 cells activated with staurosporine and treated with proteasome inhibitor: dose or concentration left out as unconfirmed
Protocol: Actin cleavage was measured in lysates immediately after lysis.
This fragment (and others) are then rapidly degraded by the ubiquitin-proteasome system. […] The cells were then lysed and tested for the presence of the 14 kDa actin peptide.

14 kDa actin fragment [2] = assay: Actin cleavage in L6 cell extracts incubated at 37° C. (immunoblot of 14 kDa actin fragment); assay type: biochemical, rat
Protocol: The cell extracts were incubated at 37° C. for various times before proteins were separated and subjected to Western blot analysis using commercially available, affinity-purified, polyclonal antibodies directed against the carboxy-terminus of actin.
To support this conclusion, we incubated lysates of L6 muscle cells at 37° C. with recombinant caspase 3 and then used Western blotting and detected the appearance of the actin fragment.
To test for involvement of the proteasome, we added MG132, an inhibitor of proteasome activity (ProScript, Inc. Cambridge, Mass.), and ATP to cell extracts before the 3 hr incubation at 37° C..
L6 muscles cells were washed and collected in ice cold PBS. Cells were swelled in hypotonic buffer (5 mM Tris pH 8.0, 1 mM 2-mercaptoethanol, 1% glycerol, 1 mM EDTA, 1 mM EGTA containing 0.1 mM phenylmethanesulfonyl fluoride (PMSF), leupeptin (5 μg/ml) and aprotinin (5 μg/ml) on ice for 30 minutes, and the cells were then gently homogenized with twenty strokes of a dounce homogenizer, with the materials being kept on ice. Homogenates were centrifuged at 3500 rpm (about 2000×g) for 10 minutes to remove nuclei and cell debris.
To assess for proteolytic cleavage of actin, extracts (20 μg of total protein) were incubated in 20 μl reaction volumes containing 25 mM Hepes (pH 7.5), 5 mM EDTA, 5 mM DTT for 3 h at 37° C. Reactions were terminated by adding Laemmli sample buffer, proteins were separated by SDS-PAGE, and immunoblot detection of actin fragments was carried out with an anti-actin antibody (Sigma).
The proteins were then transferred to ECL hybond membranes, and blots were incubated with anti-actin antibodies (1:500 dilution) in 5% milk in TTBS for 2 hours at 37° C. Bound primary antibodies were detected with goat anti-rabbit IgG antibody conjugated with HRRP and analyzed with ECL Detection Kit.

14 kDa actin fragment [3] = assay: Serum starvation-induced actin cleavage in L6 muscle cells; assay type: cell-based, rat; details: for serum starvation-induced actin cleavage: serum-starved L6 cells, 10 nM hormone added
Protocol: Physiological conditions trigger caspase 3-mediated actin cleavage . To examine whether a catabolic condition that is known to accelerate protein degradation in muscle cells also involves actin cleavage, L6 muscle cells were activated by 24 h of serum starvation (0.5% FBS) and cell lysates were prepared. […] Additional evidence for involvement of apoptosis-associated pathways was obtained by activating L6 cells using the serum starvation procedure and then adding insulin or IGF I because either hormone can prevent serum starvation induced apoptosis (24,25).

epitrochlearis muscles = assay: Protein degradation in incubated epitrochlearis muscles; design: species or system rat; details: epitrochlearis muscles in Krebs-Henseleit bicarbonate buffer with vs without inhibitor
Protocol: Rats were treated with streptozotocin and compared to pair-fed, rats injected with saline as described (4,26). Crude muscle lysates were isolated from acutely diabetic and control rats and examined for the presence of the 14 kDa actin fragment. A significant amount of this actin fragment was present in the muscle of diabetic rats compared to results from control rats. Finally, epitrochlearis muscles were incubated in Krebs-Henseleit bicarbonate buffer with or without the addition of the cell-permeable inhibitor of caspase 3, Ac-DEVD-Cho.

L6 muscle cells [4] = assay: Apoptosis by Death ELISA / DNA fragmentation in L6 muscle cells; assay type: cell-based, rat; details: cultured L6 muscle cells, Death ELISA assay
L6 muscle cells [5] = assay: Degradation of endogenous proteins in cell extracts (release of free tyrosine); assay type: cell-based, rat; details: 50 nM staurosporine 3 h; extracts 37° C. 3 h; exogenous ATP added
Protocol: L6 muscle cells were treated as marked, and lysates were incubated at 37° C. for 3 hours in the presence or absence of ATP (2 mM). Degradation of endogenous protein was monitored by measuring release of acid-soluble tyrosine from cell protein.
With this method, protein degradation in extracts of control cells was slightly less than that in extracts from staurosporine-treated cells. However, the 3 hour incubation at 37° C. could limit ATP and impair activity of the ubiquitin-proteasome system.
Protein degradation in cell extracts was assessed by measuring the net release of free tyrosine because muscles neither synthesizes nor degrades this amino acid (18,19). For 3 hours, 50 μg of cell extract proteins were incubated at 37° C. in 0.1 ml of reaction buffer (20 mM Tris (pH 7.6), 2 mM DTT, 10 mM MgCl2, 100 mM KCl, 5% glycerol) with or without 2 MM ATP.
Trichloroacetic acid (10% final concentration) was added and the amount of free tyrosine released from proteins was measured spectrofluorometrically. Alternatively, total cell protein can be labeled by growth in the presence of one or more radioactive amino acids, e.g., ^14C-labeled or ^3H-labeled, and solubilization of radioactive label can be measured with the use of liquid scintillation counting.

caspase 3 = assay: Caspase 3 activation in L6 muscle cells (immunoblot); assay type: cell-based, rat; details: FIG. 4
Text: The caspase-specific proteins were separated by SDS-PAGE and visualized by immunoblotting with polyclonal antibodies prepared in response to the N-terminus of caspase 3.
Subsequently, proteins were separated and subjected to Western blot analysis using affinity-purified, polyclonal antibodies against the carboxy-terminus of actin (Sigma St. Louis, Mo.).

Compound: CC(C)C[C@@H](C=O)NC(=O)[C@H](CC(C)C)NC(=O)[C@H](CC(C)C)NC(=O)OCc1ccccc1 [MG132] (Cbz-Leu-Leu-Leu-aldehyde)
- 14 kDa actin peptide in intact L6 cells activated with staurosporine and treated with proteasome inhibitor (14 kDa actin fragment [1]; 24 hr staurosporine plus MG 132): readily detected
- 14 kDa actin fragment in intact L6 cells, agent alone (14 kDa actin fragment [1]; L6 cells incubated 24 hr with single agent, then lysed): only a small amount
- amount of the 14 kDa actin peptide with proteasome inhibitor in presence of ATP (14 kDa actin fragment [2]; MG132 and ATP added to cell extracts before 3 hr incubation at 37° C.): greater amounts

Compound: IGF I
- serum starvation-induced actin cleavage (14 kDa actin fragment [3]): effectively blocked

Compound: Ac-DEVD-Cho
- accumulation of the 14 kDa actin fragment after serum starvation (14 kDa actin fragment [3]; 24 h serum starvation (0.5% FBS), inhibitor added to cell lysate during incubation): blocked the accumulation
- appearance of the 14 kDa actin fragment with caspase 3 inhibitor (14 kDa actin fragment [2]; extracts of L6 cells treated with 10 nM staurosporine or serum starvation, 5 μM inhibitor for 3 hr): blocked the appearance of the actin fragment
- reduction of the rate of muscle protein degradation (epitrochlearis muscles): 30%

Compound: insulin
- serum starvation-induced actin cleavage (14 kDa actin fragment [3]): effectively blocked

Compound: Nc1ncnc2c1ncn2[C@@H]1O[C@H](COP(=O)(O)OP(=O)(O)OP(=O)(O)O)[C@@H](O)[C@H]1O [ATP]
- amount of the 14 kDa peptide vs same extract without added ATP (14 kDa actin fragment [2]; 2 mM ATP added to extracts from staurosporine-treated cells, 3 hr, 37° C.): significantly reduced

Compound: CN[C@@H]1C[C@H]2O[C@@](C)([C@@H]1OC)n1c3ccccc3c3c4c(c5c6ccccc6n2c5c31)C(=O)NC4 [staurosporine]
- activation of apoptosis (L6 muscle cells [4]): activates apoptosis
- tyrosine release by extracts from staurosporine-treated cells vs control cell extracts (L6 muscle cells [5]): overall protein degradation is increased; also recorded: significantly higher
- induction of caspase 3 activity (caspase 3): induces caspase 3 activity

Compound: Arg-Ala
- amount of the 14 kDa actin fragment vs incubation with ATP alone (14 kDa actin fragment [2]; extracts of staurosporine-exposed L6 cells, 37° C., dipeptide (2 mM) and ATP): greater amount
